Results on 22 compounds are retold here after patent publication US20240368109A1, “ALLOSTERIC MODULATORS OF NICOTINIC ACETYLCHOLINE RECEPTORS” (MERCK SHARP & DOHME LLC, priority 2021, published 2024).

The structures appear in SMILES notation.

The target in the experiment is human α7 nAChR (Homo sapiens (Human), UniProt P36544). Description: Automated patch-clamp electrophysiology functional assay (Assay A). The following applies: IonFlux HT whole-cell population patch, HEK cells expressing human α7/RIC-3, 40 μM acetylcholine. The class given is cell-based. The method, then:
The α7 nAChR positive allosteric modulator (PAM) activity of the present compounds may be tested using assays known in the art. The α7 nAChR PAMs described herein have activities in an automated patch-clamp electrophysiology functional assay as described in the examples. The assay was performed using the IonFlux HT in a whole-cell, population patch configuration. See Golden et al. Assay Drug Dev. Technol. (2011) 9:608-619. The compounds were assessed for their ability to modulate the function of the human α7 nAChR stably expressed in a HEK cell line both in the presence, and in the absence of the natural α7 agonist acetylcholine. By performing a series of such measurements at different concentrations, the effective concentration of the α7 nAChR PAMs (EC50) was determined. See Spencer et al. Assay Drug Dev. Technol. (2012) 10:313-324.
Direct activation of α7 (agonism), and potentiation of acetylcholine-evoked α7 currents was determined as follows:
Automated Patch-Clamp Electrophysiology Functional Assay (Assay A)
Automated patch-clamp electrophysiology was performed using the IonFluxHT (Fluxion Biosciences Inc., San Francisco, CA) in the whole-cell, population patch configuration. Test compounds were assessed for their ability to modulate the function of the α7 nicotinic acetylcholine receptor both in the presence, and in the absence of the natural α7 agonist acetylcholine. A HEK cell line stably expressing both human RIC-3 and human α7 (PrecisION hnAChR α7/RIC-3, Eurofins Pharma, St. Charles, MO) was cultured in 175 cm^2 triple-layer tissue culture flasks to no more than 90% confluency in DMEM/F-12 growth media supplemented with 10% heat-inactivated fetal bovine serum, 1% non-essential amino acids, 0.625 μg/mL Puromycin, and 400 μg/mL Geneticin. Immediately prior to assay, cells were detached by first aspirating growth media, rinsing with Dulbecco's phosphate buffered saline, and then adding 10 mL of Accutase (Innovative Cell Technologies, San Diego, CA) to the flask and then incubating at 37° C. for 5 minutes. Detached cells were then recovered by the addition of 40 mL of CHO-serum-free media supplemented with 25 mM HEPES, and rocked gently in a 50 mL conical tube for 20 minutes prior to patch-clamp assay. After recovery, cells were pelleted by centrifugation at 1,000 RPM for 1 minute in a compact bench top centrifuge; recovery media was aspirated and cells were resuspended in external recording solution (150 mM NaCl, 5 mM KCl, 2 mM CaCl2), 1 mM MgCl2, 10 mM HEPES, 12 mM dextrose) to a density of 5.0×10^6 cells/mL. The cell suspension was added to the cell inlet wells on an IonFlux HT population patch plate which had previously been rinsed and primed with deionized H2O. Test compounds were serially diluted in DMSO and then resuspended to the final test concentration in external recording solution, with, or without 40 μM acetylcholine added to the external recording solution; test compounds were then transferred to the IonFlux HT population patch plate. Internal recording solution (110 mM TrisPO4, 28 mM TrisBase, 0.1 mM CaCl2), 2 mM MgCl2, 11 mM EGTA, 4 mM MgATP) was added to the internal recording solution inlet wells on the IonFlux HT patch plate previously loaded with cells and test compounds, and the plate loaded into the IonFlux HT instrument. A protocol was executed on the IonFlux HT to trap the cells, break into the cells, and establish the whole-cell recording configuration; cells were voltage-clamped at a holding potential of −60 mV for the duration of the experiment, all experiments were conducted at room temperature, and the IonFlux HT injection pressure was 8 psi for solution applications. Upon establishing the whole-cell configuration, external recording solution was perfused into the recording chambers for 120 seconds and then 40 μM acetylcholine was applied for 1 second and immediately washed off with external recording solution for 60 seconds. […]
Background: Patch clamp records ionic current or voltage across a cell membrane.

human α7 nAChR, sequence (P36544 23-502): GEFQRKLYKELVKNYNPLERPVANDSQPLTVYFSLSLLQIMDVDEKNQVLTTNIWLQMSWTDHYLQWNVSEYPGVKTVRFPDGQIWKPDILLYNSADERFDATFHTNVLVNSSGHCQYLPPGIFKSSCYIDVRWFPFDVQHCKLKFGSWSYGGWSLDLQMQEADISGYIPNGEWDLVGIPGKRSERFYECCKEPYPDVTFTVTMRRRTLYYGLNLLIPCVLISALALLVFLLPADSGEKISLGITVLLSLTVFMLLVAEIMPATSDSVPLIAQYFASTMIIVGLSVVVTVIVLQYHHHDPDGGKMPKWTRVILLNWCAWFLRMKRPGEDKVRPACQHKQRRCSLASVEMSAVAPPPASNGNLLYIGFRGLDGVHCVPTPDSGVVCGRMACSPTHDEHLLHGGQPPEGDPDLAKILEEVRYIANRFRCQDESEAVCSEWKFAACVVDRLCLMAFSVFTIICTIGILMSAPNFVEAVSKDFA

Broadly, the EC50 is the concentration giving half of the maximal effect. Turning to `CCOc1ccc([C@H](COC)NC(=O)C2C3Oc4c(Cl)cccc4C32)cc1` (stereo partly drawn) [Example B6, exo-3-chloro-N-[(1R)-1-(4-ethoxyphenyl)-2-methoxyethyl]-1a,6b-dihydro-1H-cyclopropa[b][1]benzofuran-1-carboxamide], the EC50 (potency class) lay in the range of 100 to 500 nM. With `O=C(NCc1ccc(O)cc1)C1C2Oc3ccc(F)cc3C21` (stereo not drawn) [Example C26, exo-5-fluoro-N-[(4-hydroxyphenyl)methyl]-1a,6b-dihydro-1H-cyclopropa[b][1]benzofuran-1-carboxamide], the concentration giving a half-maximal response (EC50) was 680 nM (electrophysiology EC50 values) and 500 to 5000 nM (potency class). Turning to `O=C(NCc1cc(-c2ccccn2)no1)C1C2Oc3ccc(F)cc3C21` (stereo not drawn) [Example C46, exo-5-fluoro-N-{[3-(pyridin-2-yl)-1,2-oxazol-5-yl]methyl}-1a,6b-dihydro-1H-cyclopropa[b][1]benzofuran-1-carboxamide], the EC50 (electrophysiology EC50 values) turned out to be 520 nM and the EC50 (potency class) fell in the range of 500 to 5000 nM. As for `O=C(NCc1nc(-c2ccccc2)no1)C1C2Oc3ccc(F)cc3C21` (stereo not drawn) [Example C53, exo-5-fluoro-N-[(3-phenyl-1,2,4-oxadiazol-5-yl)methyl]-1a,6b-dihydro-1H-cyclopropa[b][1]benzofuran-1-carboxamide], the EC50 runs as follows: (electrophysiology EC50 values) 1500 nM; (potency class) 500 to 5000 nM. With `CCOc1ccc([C@H](COC)NC(=O)C2C3Oc4ccc(F)cc4C32)cc1` (stereo partly drawn) [Example B4, exo-N-[(1R)-1-(4-ethoxyphenyl)-2-methoxyethyl]-5-fluoro-1a,6b-dihydro-1H-cyclopropa[b][1]benzofuran-1-carboxamide], the EC50 (electrophysiology EC50 values) came out at 940 nM and the EC50 (potency class) lay within 500 to 5000 nM. For `CC(NC(=O)C1C2Oc3ccc(F)cc3C21)c1cccs1` (stereo not drawn) [Example C12, exo-5-fluoro-N-[1-(thiophen-2-yl)ethyl]-1a,6b-dihydro-1H-cyclopropa[b][1]benzofuran-1-carboxamide] the same measures were 1200 nM and 500 to 5000 nM. In the case of `CCOc1ccc([C@@H](NC(=O)C2C3COc4ccc(F)cc4C32)C(F)(F)F)cn1` (stereo partly drawn) [Example A13, exo-N-[(1R)-1-(6-ethoxypyridin-3-yl)-2,2,2-trifluoroethyl]-6-fluoro-1,1a,2,7b-tetrahydrocyclopropa[c][1]benzopyran-1-carboxamide], the EC50 (electrophysiology EC50 values) is 1100 nM and the EC50 (potency class) is 500 to 5000 nM. In the same order, the values of `O=C(N[C@H]1COCc2ccc(F)cc21)C1C2Oc3ccc(F)cc3C21` (stereo partly drawn) [Example C1, exo-5-fluoro-N-[(4R)-6-fluoro-3,4-dihydro-1H-2-benzopyran-4-yl]-1a,6b-dihydro-1H-cyclopropa[b][1]benzofuran-1-carboxamide] are 4800 nM and 500 to 5000 nM.

Regarding `CCOc1ccc(C2(NC(=O)C3C4COc5ccccc5C43)CCC2)cn1` (stereo not drawn) [Example A11, exo-N-[1-(6-ethoxypyridin-3-yl)cyclobutyl]-1,1a,2,7b-tetrahydrocyclopropa[c][1]benzopyran-1-carboxamide], the EC50 was 620 nM (electrophysiology EC50 values) and 500 to 5000 nM (potency class). For `O=C(N[C@@H](CO)C1CCCCC1)C1C2COc3ccc(F)cc3C21` (stereo partly drawn) [Example 3, exo-N-[(1R)-1-Cyclohexyl-2-hydroxyethyl]-6-fluoro-1,1a,2,7b-tetrahydrocyclopropa[c][1]benzopyran-1-carboxamide] the same measures were 1700 nM and 500 to 5000 nM. As to `CCOc1ccc([C@H](COC)NC(=O)C2C3Cc4ccccc4C32)cc1` (single isomer, unassigned) [Example 2], the EC50 by setting is: (electrophysiology EC50 values) 72 nM; (potency class) at most 100 nM. In the same order, the values of `COc1cc([C@@H](NC(=O)C2C3COc4ccc(F)cc4C32)C(F)(F)F)ccn1` (stereo partly drawn) [Example 4, exo-6-Fluoro-N-[(1R)-2,2,2-trifluoro-1-(2-methoxypyridin-4-yl)ethyl]-1,1a,2,7b-tetrahydrocyclopropa[c][1]benzopyran-1-carboxamide] are 1100 nM and 500 to 5000 nM. `CCOc1ccc([C@H](COC)NC(=O)C2C3Oc4cc(OC)ccc4C32)cc1` (stereo partly drawn) [Example B17, exo-N-[(1R)-1-(4-ethoxyphenyl)-2-methoxyethyl]-4-methoxy-1a,6b-dihydro-1H-cyclopropa[b][1]benzofuran-1-carboxamide]: the EC50 by setting is: (electrophysiology EC50 values) 630 nM; (potency class) 500 to 5000 nM. For `CCOc1ccc([C@H](COC)NC(=O)C2C3Oc4cccc(Br)c4C32)cc1` (stereo partly drawn) [Example B18, exo-6-bromo-N-[(1R)-1-(4-ethoxyphenyl)-2-methoxyethyl]-1a,6b-dihydro-1H-cyclopropa[b][1]benzofuran-1-carboxamide], the EC50 is 1000 nM (electrophysiology EC50 values) and 500 to 5000 nM (potency class). Regarding `O=C(NCc1cccc(N2CCCC2)n1)C1C2Oc3ccc(F)cc3C21` (stereo not drawn) [Example C18, 2-{[(exo-5-fluoro-1a,6b-dihydro-1H-cyclopropa[b][1]benzofuran-1-carbonyl)amino]methyl}-6-(pyrrolidin-1-yl)pyridine], the EC50 was 1400 nM (electrophysiology EC50 values) and 500 to 5000 nM (potency class). For `CCOc1ccc([C@H](COC)NC(=O)C2C3Oc4ccc(F)cc4C32)cc1` (stereo partly drawn) [Example B5, exo-N-[(1R)-1-(4-ethoxyphenyl)-2-methoxyethyl]-5-fluoro-1a,6b-dihydro-1H-cyclopropa[b][1]benzofuran-1-carboxamide] the same measures were 760 nM and 500 to 5000 nM. Turning to `COc1cc(C2(NC(=O)C3C4COc5ccccc5C43)CC2)ccn1` (stereo not drawn) [Example A10, exo-N-[1-(2-methoxypyridin-4-yl)cyclopropyl]-1,1a,2,7b-tetrahydrocyclopropa[c][1]benzopyran-1-carboxamide], the EC50 (potency class) was in the range of 500 to 5000 nM.

As to `CCOc1ccc([C@H](COC)NC(=O)C2C3Oc4ccc(C#N)cc4C32)cc1` (stereo partly drawn) [Example B14, exo-5-cyano-N-[(1R)-1-(4-ethoxyphenyl)-2-methoxyethyl]-1a,6b-dihydro-1H-cyclopropa[b][1]benzofuran-1-carboxamide], where the note is “potency class”, the EC50 is 500 to 5000 nM. Turning to `O=C(N[C@@H]1CCc2c(O)cccc21)C1C2Oc3ccc(F)cc3C21` (mixture of isomers) [Example C10, exo-5-fluoro-N-(4-hydroxy-2,3-dihydro-1H-inden-1-yl)-1a,6b-dihydro-1H-cyclopropa[b][1]benzofuran-1-carboxamide], the EC50 was 1600 nM (electrophysiology EC50 values) and 500 to 5000 nM (potency class).

As for `O=C(NCc1cc(-c2ccccc2)no1)C1C2Oc3ccc(F)cc3C21` (stereo not drawn) [Example C48, exo-5-fluoro-N-[(3-phenyl-1,2-oxazol-5-yl)methyl]-1a,6b-dihydro-1H-cyclopropa[b][1]benzofuran-1-carboxamide], the EC50 is, setting by setting: (electrophysiology EC50 values) 550 nM; (potency class) 500 to 5000 nM.

`CCOc1ccc([C@H](COC)NC(=O)C2C3Oc4c(Cl)cccc4C32)cc1` (stereo partly drawn) [Example B7, exo-3-chloro-N-[(1R)-1-(4-ethoxyphenyl)-2-methoxyethyl]-1a,6b-dihydro-1H-cyclopropa[b][1]benzofuran-1-carboxamide]: the EC50 runs as follows: (electrophysiology EC50 values) 480 nM; (potency class) 100 to 500 nM. With `CC(NC(=O)C1C2Oc3ccc(F)cc3C21)c1ccno1` (stereo not drawn) [Example C43, exo-5-fluoro-N-[1-(1,2-oxazol-5-yl)ethyl]-1a,6b-dihydro-1H-cyclopropa[b][1]benzofuran-1-carboxamide], the EC50 is 1900 nM (electrophysiology EC50 values) and 500 to 5000 nM (potency class).
